This is an account of results in BindingDB's records for doi:10.1124/dmd.112.048355 (Glaxosmithkline, 2013).

Structures are written as SMILES.

The target in the assay is Methionine aminopeptidase 2 (Homo sapiens) (UniProt P50579). Put plainly: Inhibition of MetAP2 activity in HUVEC assessed as inhibition of cell proliferation by MTT assay. (In general: Tetrazolium assays rely on reduction of a dye to a coloured formazan, in cell work by metabolically active cells.)
Methionine aminopeptidase 2 (Homo sapiens), sequence (P50579 whole entry, looked up): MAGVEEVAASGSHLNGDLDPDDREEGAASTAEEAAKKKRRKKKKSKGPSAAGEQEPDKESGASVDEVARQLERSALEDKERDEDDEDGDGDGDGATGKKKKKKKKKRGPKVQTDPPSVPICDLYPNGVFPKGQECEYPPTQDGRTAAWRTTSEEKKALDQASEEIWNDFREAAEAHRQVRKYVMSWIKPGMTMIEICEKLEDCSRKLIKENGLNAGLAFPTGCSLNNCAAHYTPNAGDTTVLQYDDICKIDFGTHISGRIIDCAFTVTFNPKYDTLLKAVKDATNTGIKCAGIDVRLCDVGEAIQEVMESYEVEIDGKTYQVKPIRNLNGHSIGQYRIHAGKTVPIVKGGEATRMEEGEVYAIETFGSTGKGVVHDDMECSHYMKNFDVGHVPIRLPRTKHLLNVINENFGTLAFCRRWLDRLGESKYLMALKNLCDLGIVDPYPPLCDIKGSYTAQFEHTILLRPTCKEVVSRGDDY

What is called EC50 is the concentration needed to bring the measured effect to its halfway point. For the compound `CO[C@@H]1[C@H](OC(=O)N[C@@H](C(N)=O)C(C)C)CC[C@]2(CO2)[C@H]1[C@@]1(C)O[C@@H]1C[C@H]1OC1(C)C`, the EC50 worked out at 1.3 nM. Turning to `CO[C@@H]1[C@H](OC(=O)N[C@@H](C(N)=O)C(C)C)CC[C@]2(CO2)[C@H]1[C@@]1(C)O[C@@H]1C[C@@H]1OC1(C)C`, the EC50 stood at 6.5 nM.

Turning to `CO[C@@H]1[C@H](OC(=O)N[C@@H](C(N)=O)C(C)(C)O)CC[C@]2(CO2)[C@H]1[C@@]1(C)O[C@@H]1CC=C(C)C`, the EC50 was 0.3 nM. In the case of `CO[C@@H]1[C@H](OC(=O)N[C@@H](C(N)=O)C(C)C)CC[C@]2(CO2)[C@H]1[C@@]1(C)O[C@@H]1CC=C(C)C`, the EC50 turned out to be 0.095 nM. As for `CO[C@@H]1[C@H](OC(=O)N[C@@H](C(N)=O)C(C)(C)O)CC[C@]2(CO2)[C@H]1[C@@]1(C)O[C@@H]1C[C@@H]1OC1(C)C`, the figure is 12 nM; as for `CO[C@@H]1[C@H](OC(=O)N[C@@H](C(N)=O)C(C)C)CC[C@]2(CO2)[C@H]1[C@@]1(C)O[C@@H]1C/C=C(\C)CO`, 7.1 nM. As for `CO[C@@H]1[C@H](OC(=O)N[C@@H](C(N)=O)C(C)(C)O)CC[C@]2(CO2)[C@H]1[C@@]1(C)O[C@@H]1C[C@H]1OC1(C)C`, the figure is 8.8 nM.
